# Assay: Safety and tolerability (adverse events), Study 1 MAD in healthy participants
# Type: in vivo, human
# Details: n = 6
compound,measurement,setting,value
"Cc1c(-c2c(F)cc(C(N)=O)c3[nH]c4c(c23)CC[C@H](C(C)(C)O)C4)cccc1-n1c(=O)c2cccc(F)c2n(C)c1=O [BMS-986142, 6-fluoro-5-(R)-(3-(S)-(8-fluoro-1-methyl-2,4-dioxo-1,2-dihydroquinazolin-3(4H)-yl)-2-methylphenyl)-2-(S)-(2-hydroxypropan-2-yl)-2,3,4,9-tetrahydro-1H-carbazole-8-carboxamide]",AE SOC: Ear and labyrinth disorders,MAD 25 mg QD,0 n (%)
same,AE SOC: Eye disorders,MAD 25 mg QD,1 (16.7) n (%)
same,AE SOC: Gastrointestinal Disorders,MAD 25 mg QD,0 n (%)
same,AE SOC: Infections and infestations,MAD 25 mg QD,0 n (%)
same,"AE SOC: Injury, poisoning and procedural complications",MAD 25 mg QD,1 (16.7) n (%)
same,AE SOC: Investigations,MAD 25 mg QD,0 n (%)
same,AE SOC: Musculoskeletal and connective tissue disorders,MAD 25 mg QD,0 n (%)
same,AE SOC: Nervous system disorders,MAD 25 mg QD,0 n (%)
same,AE SOC: Psychiatric disorders,MAD 25 mg QD,0 n (%)
same,"AE SOC: Respiratory, thoracic and mediastinal disorders",MAD 25 mg QD,1 (16.7) n (%)
same,AE SOC: Skin and subcutaneous tissue disorders,MAD 25 mg QD,0 n (%)
same,AE: Abdominal pain,MAD 25 mg QD,0 n (%)
same,AE: Back pain,MAD 25 mg QD,0 n (%)
same,AE: Blood creatinine phosphokinase increased,MAD 25 mg QD,0 n (%)
same,AE: Cerumen impaction,MAD 25 mg QD,0 n (%)
same,AE: Cough,MAD 25 mg QD,1 (16.7) n (%)
same,AE: Diarrhoea,MAD 25 mg QD,0 n (%)
same,AE: Eye pain,MAD 25 mg QD,1 (16.7) n (%)
same,AE: Haemoptysis,MAD 25 mg QD,0 n (%)
same,AE: Headache,MAD 25 mg QD,0 n (%)
same,AE: Psychotic disorder,MAD 25 mg QD,0 n (%)
same,AE: Rash,MAD 25 mg QD,0 n (%)
same,AE: Somnolence,MAD 25 mg QD,0 n (%)
same,AE: Syncope,MAD 25 mg QD,0 n (%)
same,AE: Thermal burn,MAD 25 mg QD,1 (16.7) n (%)
same,AE: Throat irritation,MAD 25 mg QD,0 n (%)
same,AE: Upper respiratory tract infection,MAD 25 mg QD,0 n (%)
same,Total subjects with an event,MAD 25 mg QD,2 (33.3) n (%)
same,AE SOC: Ear and labyrinth disorders,MAD 75 mg QD,1 (16.7) n (%)
same,AE SOC: Eye disorders,MAD 75 mg QD,0 n (%)
same,AE SOC: Gastrointestinal Disorders,MAD 75 mg QD,2 (33.3) n (%)
same,AE SOC: Infections and infestations,MAD 75 mg QD,0 n (%)
same,"AE SOC: Injury, poisoning and procedural complications",MAD 75 mg QD,0 n (%)
same,AE SOC: Investigations,MAD 75 mg QD,0 n (%)
same,AE SOC: Musculoskeletal and connective tissue disorders,MAD 75 mg QD,0 n (%)
same,AE SOC: Nervous system disorders,MAD 75 mg QD,1 (16.7) n (%)
same,AE SOC: Psychiatric disorders,MAD 75 mg QD,1 (16.7) n (%)
same,"AE SOC: Respiratory, thoracic and mediastinal disorders",MAD 75 mg QD,1 (16.7) n (%)
same,AE SOC: Skin and subcutaneous tissue disorders,MAD 75 mg QD,0 n (%)
same,AE: Abdominal pain,MAD 75 mg QD,1 (16.7) n (%)
same,AE: Back pain,MAD 75 mg QD,0 n (%)
same,AE: Blood creatinine phosphokinase increased,MAD 75 mg QD,0 n (%)
same,AE: Cerumen impaction,MAD 75 mg QD,1 (16.7) n (%)
same,AE: Cough,MAD 75 mg QD,0 n (%)
same,AE: Diarrhoea,MAD 75 mg QD,1 (16.7) n (%)
same,AE: Eye pain,MAD 75 mg QD,0 n (%)
same,AE: Haemoptysis,MAD 75 mg QD,1 (16.7) n (%)
same,AE: Headache,MAD 75 mg QD,1 (16.7) n (%)
same,AE: Psychotic disorder,MAD 75 mg QD,1 (16.7) n (%)
same,AE: Rash,MAD 75 mg QD,0 n (%)
same,AE: Somnolence,MAD 75 mg QD,0 n (%)
same,AE: Syncope,MAD 75 mg QD,0 n (%)
same,AE: Thermal burn,MAD 75 mg QD,0 n (%)
same,AE: Throat irritation,MAD 75 mg QD,1 (16.7) n (%)
same,AE: Upper respiratory tract infection,MAD 75 mg QD,0 n (%)
same,Total subjects with an event,MAD 75 mg QD,4 (66.7) n (%)
same,AE SOC: Ear and labyrinth disorders,MAD 200 mg QD,0 n (%)
same,AE SOC: Eye disorders,MAD 200 mg QD,0 n (%)
same,AE SOC: Gastrointestinal Disorders,MAD 200 mg QD,0 n (%)
same,AE SOC: Infections and infestations,MAD 200 mg QD,1 (16.7) n (%)
same,"AE SOC: Injury, poisoning and procedural complications",MAD 200 mg QD,0 n (%)
same,AE SOC: Investigations,MAD 200 mg QD,0 n (%)
same,AE SOC: Musculoskeletal and connective tissue disorders,MAD 200 mg QD,1 (16.7) n (%)
same,AE SOC: Nervous system disorders,MAD 200 mg QD,0 n (%)
same,AE SOC: Psychiatric disorders,MAD 200 mg QD,0 n (%)
same,"AE SOC: Respiratory, thoracic and mediastinal disorders",MAD 200 mg QD,0 n (%)
same,AE SOC: Skin and subcutaneous tissue disorders,MAD 200 mg QD,0 n (%)
same,AE: Abdominal pain,MAD 200 mg QD,0 n (%)
same,AE: Back pain,MAD 200 mg QD,1 (16.7) n (%)
same,AE: Blood creatinine phosphokinase increased,MAD 200 mg QD,0 n (%)
same,AE: Cerumen impaction,MAD 200 mg QD,0 n (%)
same,AE: Cough,MAD 200 mg QD,0 n (%)
same,AE: Diarrhoea,MAD 200 mg QD,0 n (%)
same,AE: Eye pain,MAD 200 mg QD,0 n (%)
same,AE: Haemoptysis,MAD 200 mg QD,0 n (%)

# Source: paper PMC5423977, “Safety, pharmacokinetics, and pharmacodynamics of BMS-986142, a novel reversible BTK inhibitor, in healthy participants” (European Journal of Clinical Pharmacology, 2017)
